Consider 21 compounds from patent US12415803B2, “Fused imidazopyridines as reversible inhibitors of Brutons Tyrosine Kinase (BTK)” (Merck Patent GmbH, priority 2018, dated 2025).

The target in one assay is full-length human BTK (Homo sapiens (Human), UniProt Q06187). The experiment in a line: BTK IC50 Enzyme Assay (microfluidic off-chip mobility shift kinase assay).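 Further: Read-out separates phosphorylated peptide product from substrate by their charge-to-mass difference, with IC50 fitted from log inhibitor concentration against percent enzyme activity.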 The format is biochemical. As to conditions: Btk Enzymatic IC50 Assay, 90 min at 27 C.
full-length human BTK, sequence (Q06187 whole entry): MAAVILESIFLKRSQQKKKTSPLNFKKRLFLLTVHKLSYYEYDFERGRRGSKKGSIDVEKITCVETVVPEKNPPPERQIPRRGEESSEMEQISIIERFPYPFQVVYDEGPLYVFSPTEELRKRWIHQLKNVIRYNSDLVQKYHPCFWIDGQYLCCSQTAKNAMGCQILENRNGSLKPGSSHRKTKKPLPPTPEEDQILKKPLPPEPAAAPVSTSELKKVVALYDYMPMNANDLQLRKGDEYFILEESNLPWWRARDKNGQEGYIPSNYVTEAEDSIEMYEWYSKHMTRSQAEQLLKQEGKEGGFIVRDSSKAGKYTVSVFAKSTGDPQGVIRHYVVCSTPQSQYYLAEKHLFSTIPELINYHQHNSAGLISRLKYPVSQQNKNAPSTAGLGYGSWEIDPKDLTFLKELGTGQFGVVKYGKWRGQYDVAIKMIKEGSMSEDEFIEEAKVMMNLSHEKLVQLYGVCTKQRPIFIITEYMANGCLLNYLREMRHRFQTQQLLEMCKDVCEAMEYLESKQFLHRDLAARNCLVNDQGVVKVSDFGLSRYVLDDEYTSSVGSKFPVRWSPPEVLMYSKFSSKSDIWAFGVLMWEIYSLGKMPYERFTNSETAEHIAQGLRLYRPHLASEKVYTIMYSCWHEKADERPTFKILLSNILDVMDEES
For the next assay, the target named is Btk (Homo sapiens (Human), UniProt Q06187). The assay is described as follows: Btk PBMC IC50 Cell Assay (anti-IgM-induced CD69 expression on B cells).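 Further: freshly isolated human PBMCs, IC50 from concentration-response of the share of CD19+ cells expressing CD69 after anti-IgM BCR stimulation.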 Type of assay: cell-based. The settings on record: anti-IgM-induced CD69 expression on CD19 positive cells in human PBMCs.
Btk, sequence (Q06187 whole entry): as above

As usually defined, the IC50 is the concentration needed to halve the response being measured. In the case of `Cc1nn(C(C)C)c(C)c1-c1nc2c(-c3ccc4c(c3)CCCC[C@H]4NC(=O)c3noc(C(C)(C)C)n3)ccnc2[nH]1` [Compound 30, 5-tert-Butyl-[1,2,4]oxadiazole-3-carboxylic acid {(R)-2-[2-(1-isopropyl-3,5-dimethyl-1H-pyrazol-4-yl)-3H-imidazo[4,5-b]pyridin-7-yl]-6,7,8,9-tetrahydro-5H-benzocyclohepten-5-yl}-amide], the values for the IC50 at full-length human BTK and on Btk were less than 1 nM and 1 to 10 nM, respectively.
Turning to `Cc1nn(C(C)C)c(C)c1-c1nc2c(-c3ccc4c(c3)CCCC[C@@H]4NC(=O)c3noc(C(C)(C)C)n3)ccnc2[nH]1` [Compound 31, 5-tert-Butyl-[1,2,4]oxadiazole-3-carboxylic acid {(S)-2-[2-(1-isopropyl-3,5-dimethyl-1H-pyrazol-4-yl)-3H-imidazo[4,5-b]pyridin-7-yl]-6,7,8,9-tetrahydro-5H-benzocyclohepten-5-yl}-amide], the IC50 at full-length human BTK was in the range of 1 to 10 nM; at Btk it was 10 to 100 nM.
With `Cc1nn(C(C)C)c(C)c1-c1nc2c(-c3ccc4c(c3)CCCCC4NC(=O)c3noc(C4(C)CC4)n3)ccnc2[nH]1` (stereo not drawn) [Compound 32, 5-(1-Methyl-cyclopropyl)-[1,2,4]oxadiazole-3-carboxylic acid {2-[2-(1-isopropyl-3,5-dimethyl-1H-pyrazol-4-yl)-3H-imidazo[4,5-b]pyridin-7-yl]-6,7,8,9-tetrahydro-5H-benzocyclohepten-5-yl}-amide], the figures for the IC50 at full-length human BTK and against Btk were less than 1 nM and 1 to 10 nM, respectively.
Turning to `Cc1nn(C(C)C)c(C)c1-c1nc2c(-c3ccc4c(c3)CCCC[C@@H]4NC(=O)c3noc(C4(C)CC4)n3)ccnc2[nH]1` [Compound 34, 5-(1-Methyl-cyclopropyl)-[1,2,4]oxadiazole-3-carboxylic acid {(S)-2-[2-(1-isopropyl-3,5-dimethyl-1H-pyrazol-4-yl)-3H-imidazo[4,5-b]pyridin-7-yl]-6,7,8,9-tetrahydro-5H-benzocyclohepten-5-yl}-amide], the half-inhibitory concentration (IC50) at full-length human BTK was 1 to 10 nM; at Btk, greater than 100 nM.
As for `Cc1nn(C(C)C)c(C)c1-c1nc2c(-c3ccc4c(c3)CCCCC4NC(=O)c3nc(C4(C)CC4)no3)ccnc2[nH]1` (stereo not drawn) [Compound 35, 3-(1-Methyl-cyclopropyl)-[1,2,4]oxadiazole-5-carboxylic acid {2-[2-(1-isopropyl-3,5-dimethyl-1H-pyrazol-4-yl)-3H-imidazo[4,5-b]pyridin-7-yl]-6,7,8,9-tetrahydro-5H-benzocyclohepten-5-yl}-amide], the IC50 on full-length human BTK is less than 1 nM; against Btk it was 1 to 10 nM.
For the compound `Cc1nn(C(C)C)c(C)c1-c1nc2c(-c3ccc4c(c3)CCCC[C@@H]4NC(=O)c3nc(C4(C)CC4)no3)ccnc2[nH]1` [Compound 36, 3-(1-Methyl-cyclopropyl)-[1,2,4]oxadiazole-5-carboxylic acid {(S)-2-[2-(1-isopropyl-3,5-dimethyl-1H-pyrazol-4-yl)-3H-imidazo[4,5-b]pyridin-7-yl]-6,7,8,9-tetrahydro-5H-benzocyclohepten-5-yl}-amide], the IC50 was 1 to 10 nM at full-length human BTK and greater than 100 nM against Btk.
The like results for `Cn1cc(-c2nc3c(-c4ccc5c(c4)OCCCC5NC(=O)c4noc(C(C)(C)C)n4)ccnc3[nH]2)cn1` (stereo not drawn) [Compound 37, 5-tert-Butyl-[1,2,4]oxadiazole-3-carboxylic acid {8-[2-(1-methyl-1H-pyrazol-4-yl)-3H-imidazo[4,5-b]pyridin-7-yl]-2,3,4,5-tetrahydro-benzo[b]oxepin-5-yl}-amide] were, in that order, less than 1 nM and 1 to 10 nM.
The like results for `Cn1cc(-c2nc3c(-c4ccc5c(c4)OCCCC5NC(=O)c4nc(C(C)(C)C)no4)ccnc3[nH]2)cn1` (stereo not drawn) [Compound 38, 3-tert-Butyl-[1,2,4]oxadiazole-5-carboxylic acid {8-[2-(1-methyl-1H-pyrazol-4-yl)-3H-imidazo[4,5-b]pyridin-7-yl]-2,3,4,5-tetrahydro-benzo[b]oxepin-5-yl}-amide] were, in that order, less than 1 nM and 1 to 10 nM.
Taken in the same sequence, the figures for `Cn1cc(-c2nc3c(-c4ccc5c(c4)CCCCC5NC(=O)c4noc(C(C)(C)C)n4)ccnc3[nH]2)cn1` (stereo not drawn) [Compound 39, 5-tert-Butyl-[1,2,4]oxadiazole-3-carboxylic acid {2-[2-(1-methyl-1H-pyrazol-4-yl)-3H-imidazo[4,5-b]pyridin-7-yl]-6,7,8,9-tetrahydro-5H-benzocyclohepten-5-yl}-amide] were less than 1 nM and less than 1 nM.
Take `Cn1cc(-c2nc3c(-c4ccc5c(c4)CCCCC5NC(=O)c4noc(C5(C)CC5)n4)ccnc3[nH]2)cn1` (stereo not drawn) [Compound 40, 5-(1-Methyl-cyclopropyl)-[1,2,4]oxadiazole-3-carboxylic acid {2-[2-(1-methyl-1H-pyrazol-4-yl)-3H-imidazo[4,5-b]pyridin-7-yl]-6,7,8,9-tetrahydro-5H-benzocyclohepten-5-yl}-amide]: the 50% inhibitory concentration (IC50) on full-length human BTK was less than 1 nM; at Btk it was 1 to 10 nM.
For the compound `Cn1cc(-c2nc3c(-c4ccc5c(c4)CCCCC5NC(=O)c4cc(C5(C)CC5)on4)ccnc3[nH]2)cn1` (stereo not drawn) [Compound 41, 5-(1-Methyl-cyclopropyl)-isoxazole-3-carboxylic acid {2-[2-(1-methyl-1H-pyrazol-4-yl)-3H-imidazo[4,5-b]pyridin-7-yl]-6,7,8,9-tetrahydro-5H-benzocyclohepten-5-yl}-amide], the IC50 at full-length human BTK was less than 1 nM; against Btk, 1 to 10 nM.
On to `Cn1cc(-c2nc3c(-c4ccc5c(c4)CCCCC5NC(=O)c4nnc(C(C)(C)C)o4)ccnc3[nH]2)cn1` (stereo not drawn) [Compound 42, 5-tert-Butyl-[1,3,4]oxadiazole-2-carboxylic acid {2-[2-(1-methyl-1H-pyrazol-4-yl)-3H-imidazo[4,5-b]pyridin-7-yl]-6,7,8,9-tetrahydro-5H-benzocyclohepten-5-yl}-amide], for which the figures for the IC50 on full-length human BTK and against Btk were less than 1 nM and 1 to 10 nM, respectively.
With `Cn1cc(-c2nc3c(-c4ccc5c(c4)CCCCC5NC(=O)N4CC(OC(C)(C)C)C4)ccnc3[nH]2)cn1` (stereo not drawn) [Compound 43, 3-tert-Butoxy-azetidine-1-carboxylic acid {2-[2-(1-methyl-1H-pyrazol-4-yl)-3H-imidazo[4,5-b]pyridin-7-yl]-6,7,8,9-tetrahydro-5H-benzocyclohepten-5-yl}-amide], the values for the half-maximal inhibitory concentration (IC50) at full-length human BTK and at Btk were less than 1 nM and 1 to 10 nM, respectively.
On to `Cn1cc(-c2nc3c(-c4ccc5c(c4)OCCC[C@H]5NC(=O)c4nc(C(C)(C)C)no4)ccnc3[nH]2)cn1` [Compound 44, 3-tert-Butyl-[1,2,4]oxadiazole-5-carboxylic acid {(R)-8-[2-(1-methyl-1H-pyrazol-4-yl)-3H-imidazo[4,5-b]pyridin-7-yl]-2,3,4,5-tetrahydro-benzo[b]oxepin-5-yl}-amide], for which the IC50 on full-length human BTK lay within 1 to 10 nM; at Btk, 10 to 100 nM.
Consider `Cn1cc(-c2nc3c(-c4ccc5c(c4)OCCC[C@@H]5NC(=O)c4nc(C(C)(C)C)no4)ccnc3[nH]2)cn1` [Compound 45, 3-tert-Butyl-[1,2,4]oxadiazole-5-carboxylic acid {(S)-8-[2-(1-methyl-1H-pyrazol-4-yl)-3H-imidazo[4,5-b]pyridin-7-yl]-2,3,4,5-tetrahydro-benzo[b]oxepin-5-yl}-amide], for which the values for the IC50 at full-length human BTK and against Btk were less than 1 nM and 1 to 10 nM, respectively.
`Cn1cc(-c2nc3c(-c4ccc5c(c4)OCCC[C@H]5NC(=O)c4noc(C(C)(C)C)n4)ccnc3[nH]2)cn1` [Compound 46, 5-tert-Butyl-[1,2,4]oxadiazole-3-carboxylic acid {(R)-8-[2-(1-methyl-1H-pyrazol-4-yl)-3H-imidazo[4,5-b]pyridin-7-yl]-2,3,4,5-tetrahydro-benzo[b]oxepin-5-yl}-amide]: the IC50 was less than 1 nM on full-length human BTK and 1 to 10 nM at Btk.
Regarding `Cn1cc(-c2nc3c(-c4ccc5c(c4)OCCC[C@@H]5NC(=O)c4noc(C(C)(C)C)n4)ccnc3[nH]2)cn1` [Compound 47, 5-tert-Butyl-[1,2,4]oxadiazole-3-carboxylic acid {(S)-8-[2-(1-methyl-1H-pyrazol-4-yl)-3H-imidazo[4,5-b]pyridin-7-yl]-2,3,4,5-tetrahydro-benzo[b]oxepin-5-yl}-amide], the values for the IC50 at full-length human BTK and against Btk were 1 to 10 nM and 10 to 100 nM, respectively.
On to `Cn1cc(-c2nc3c(-c4ccc5c(c4)CCCC[C@H]5NC(=O)c4nnc(C(C)(C)C)o4)ccnc3[nH]2)cn1` [Compound 48, 5-tert-Butyl-[1,3,4]oxadiazole-2-carboxylic acid {(R)-2-[2-(1-methyl-1H-pyrazol-4-yl)-3H-imidazo[4,5-b]pyridin-7-yl]-6,7,8,9-tetrahydro-5H-benzocyclohepten-5-yl}-amide], for which the IC50 at full-length human BTK was 1 to 10 nM; against Btk it was greater than 100 nM.
In the case of `Cn1cc(-c2nc3c(-c4ccc5c(c4)CCCC[C@@H]5NC(=O)c4nnc(C(C)(C)C)o4)ccnc3[nH]2)cn1` [Compound 49, 5-tert-Butyl-[1,3,4]oxadiazole-2-carboxylic acid {(S)-2-[2-(1-methyl-1H-pyrazol-4-yl)-3H-imidazo[4,5-b]pyridin-7-yl]-6,7,8,9-tetrahydro-5H-benzocyclohepten-5-yl}-amide], the figures for the IC50 on full-length human BTK and against Btk were less than 1 nM and 1 to 10 nM, respectively.
`Cn1cc(-c2nc3nccc(-c4ccc5c(c4)CCCC[C@H]5NC(=O)N4CC(OC(C)(C)C)C4)c3[nH]2)cn1` [Compound 50, 3-tert-Butoxy-azetidine-1-carboxylic acid {(R)-2-[2-(1-methyl-1H-pyrazol-4-yl)-3H-imidazo[4,5-b]pyridin-7-yl]-6,7,8,9-tetrahydro-5H-benzocyclohepten-5-yl}-amide]: the IC50 at full-length human BTK is 1 to 10 nM; on Btk, greater than 100 nM.
Turning to `Cn1cc(-c2nc3nccc(-c4ccc5c(c4)CCCC[C@H]5NC(=O)N4CC(OC(C)(C)C)C4)c3[nH]2)cn1` [Compound 51, 3-tert-Butoxy-azetidine-1-carboxylic acid {(R)-2-[2-(1-methyl-1H-pyrazol-4-yl)-3H-imidazo[4,5-b]pyridin-7-yl]-6,7,8,9-tetrahydro-5H-benzocyclohepten-5-yl}-amide], the 50% inhibitory concentration (IC50) was less than 1 nM at full-length human BTK and 1 to 10 nM on Btk.
